One test addresses T1, Recombinant human p38α (Homo sapiens, UniProt Q16539).
T1 construct: GST; made in house
Put plainly: Fluorescence anisotropy kinase binding assay (standard or low volume). The conditions noted are these: for active in the assay (pIC50, p38α binding): 12 nM p38α, 5 nM fluorescent ligand. An outline of the steps: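 Activated GST-tagged recombinant human p38α (pre-activated with MBP-MKK6 DD) at 12 nM final with 5 nM rhodamine green-labelled pyridinylimidazole tracer in pH 7.5 HEPES/CHAPS/DTT/MgCl2 buffer. Test compound 0.28 nM–16.6 μM or 0.02 nM–25 μM final, 3% or 1.7% DMSO; 30–60 min at room temperature. Fluorescence anisotropy read (ex 485/em 535 nm) for Ki.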

Test [1] deals with IL-8 production by human neutrophils. The test is described as follows: TNF-stimulated IL-8 production from human neutrophils. It counts as cell-based. Particulars: Neutrophil; call rule not given here.
[2] abbreviates: bound, read-out: apparent pIC50 (converted).
[3] abbreviates: ends given as 'less than' / 'greater than', read-out: IC50, broad range of data upon multiple runs.
Setting [4] is: bound, not more than 50% inhibition at 100 nM, read-out: IC50.
Setting [5] is: second end given as 'less than', read-out: pIC50, broad range of data upon multiple runs (converted).

Where a name gives a salt, the structure may show the parent alone. Read-outs that look alike come from different tables or passages of the source.

T1 sequence (Q16539 whole entry): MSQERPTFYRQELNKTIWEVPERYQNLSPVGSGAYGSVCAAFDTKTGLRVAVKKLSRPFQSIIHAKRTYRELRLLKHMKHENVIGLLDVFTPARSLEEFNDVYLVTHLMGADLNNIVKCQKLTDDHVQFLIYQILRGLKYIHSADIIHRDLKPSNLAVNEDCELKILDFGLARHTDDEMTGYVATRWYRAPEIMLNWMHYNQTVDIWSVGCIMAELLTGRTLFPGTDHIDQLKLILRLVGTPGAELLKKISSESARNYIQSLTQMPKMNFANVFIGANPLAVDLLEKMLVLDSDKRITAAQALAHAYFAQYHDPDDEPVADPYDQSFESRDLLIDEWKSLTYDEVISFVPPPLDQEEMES

Take `Cc1ccc(C(=O)NCc2ccccc2)cc1-c1nc(NCCN(C)C(=O)OC(C)(C)C)nc2c1CNC(=O)N2c1c(F)cccc1F` [19(a), 1,1-Dimethylethyl (2-{[8-(2,6-difluorophenyl)-4-(2-methyl-5-{[(phenylmethyl)amino]carbonyl}phenyl)-7-oxo-5,6,7,8-tetrahydropyrimido[4,5-d]pyrimidin-2-yl]amino}ethyl)methylcarbamate]: the results for the IC50 (at Recombinant human p38α (setting [2]); in test [1] (setting [3])) were > 15800 nM and 40 to 100 nM, respectively.

As to `CCN(CC)C(=O)c1ccc(C)c(-c2nc(S(C)(=O)=O)nc3c2CNC(=O)N3c2c(F)cccc2F)c1` [156(b), 3-[8-(2,6-difluorophenyl)-2-(methylsulfonyl)-7-oxo-5,6,7,8-tetrahydropyrimido[4,5-d]pyrimidin-4-yl]-N,N-diethyl-4-methylbenzamide], on Recombinant human p38α, the “active in the assay (pIC50, p38α binding)” value (shortened to “active in the assay”) was “active”. In addition, the IC50 in test [1] (setting [4]) is > 100 nM.

As for `Cc1ccc(C(=O)Nc2ccc(C)c(-c3nc(S(C)(=O)=O)nc4c3CNC(=O)N4c3c(F)cccc3F)c2)cc1F` [23(d), N-[3-[8-(2,6-difluorophenyl)-2-(methylsulfonyl)-7-oxo-5,6,7,8-tetrahydropyrimido[4,5-d]pyrimidin-4-yl]-4-methylphenyl]-3-fluoro-4-methylbenzamide], the “active in the assay” value on Recombinant human p38α is on record as “active”. In test [1] (setting [4]), the IC50 is > 100 nM.

Regarding `CSc1nc(-c2cc(C(=O)NCc3ccccc3)ccc2C)c2c(n1)N(c1c(F)cccc1F)C(=O)NC2` [15(a), 3-[8-(2,6-Difluorophenyl)-2-(methylthio)-7-oxo-5,6,7,8-tetrahydropyrimido[4,5-d]pyrimidin-4-yl]-4-methyl-N-(phenylmethyl)benzamide], on Recombinant human p38α, the “active in the assay” value is recorded as “active”. For the same compound, the IC50 in test [1] (setting [3]) lay within 40 to 100 nM.

As for `Cc1ccc(C(=O)NCC2CC2)cc1-c1nc(N(C)CCN)nc2c1CNC(=O)N2c1c(F)cccc1F` [4(c), 3-[2-[(2-Aminoethyl)(methyl)amino]-8-(2,6-difluorophenyl)-7-oxo-5,6,7,8-tetrahydropyrimido[4,5-d]pyrimidin-4-yl]-N-(cyclopropylmethyl)-4-methylbenzamide], the “active in the assay” value on Recombinant human p38α is listed as “active”. Further, in test [1] (setting [4]), the IC50 was > 100 nM.

For `CN(C)CCNc1nc(-c2ccc(C(=O)N(C)C)cc2)c2c(n1)N(c1c(F)cccc1F)C(=O)NC2` [Example 101, 4-(8-(2,6-difluorophenyl)-2-{[2-(dimethylamino)ethyl]amino}-7-oxo-5,6,7,8-tetrahydropyrimido[4,5-d]pyrimidin-4-yl)-N,N-dimethylbenzamide trifluoroacetate], the IC50 is > 15800 nM at Recombinant human p38α (setting [2]) and > 100 nM in test [1] (setting [4]).

For `CN(C)CCNc1nc(-c2ccc(C(N)=O)cc2)c2c(n1)N(c1c(F)cccc1F)C(=O)NC2` [Example 103, 4-(8-(2,6-difluorophenyl)-2-{[2-(dimethylamino)ethyl]amino}-7-oxo-5,6,7,8-tetrahydropyrimido[4,5-d]pyrimidin-4-yl)benzamide trifluoroacetate], the values for the IC50 (on Recombinant human p38α (setting [2]); in test [1] (setting [4])) were > 15800 nM and > 100 nM, respectively.

As for `CCCNC(=O)c1ccc(-c2nc(NCCN(C)C)nc3c2CNC(=O)N3c2c(F)cccc2F)cc1` [Example 98, 4-(8-(2,6-difluorophenyl)-2-{[2-(dimethylamino)ethyl]amino}-7-oxo-5,6,7,8-tetrahydropyrimido[4,5-d]pyrimidin-4-yl)-N-propylbenzamide trifluoroacetate], the IC50 at Recombinant human p38α (setting [2]) was > 15800 nM; in test [1] (setting [4]) it was > 100 nM.

As for `Cc1ccc(C(=O)NCC2CC2)cc1-c1nc(NC2CCNCC2)nc2c1CNC(=O)N2c1c(F)cccc1F` [6(b), N-(Cyclopropylmethyl)-3-[8-(2,6-difluorophenyl)-7-oxo-2-(4-piperidinylamino)-5,6,7,8-tetrahydropyrimido[4,5-d]pyrimidin-4-yl]-4-methylbenzamide], on Recombinant human p38α, the “active in the assay” value is reported as “active”. Also, the IC50 in test [1] (setting [4]) is > 100 nM.

With `Cc1ccc(C(=O)NC(C)C)cc1-c1nc(NCCN2CCN(Cc3ccccc3)CC2)nc2c1CNC(=O)N2c1c(F)cccc1F` [Example 197, 3-[8-(2,6-difluorophenyl)-7-oxo-2-({2-[4-(phenylmethyl)-1-piperazinyl]ethyl}amino)-5,6,7,8-tetrahydropyrimido[4,5-d]pyrimidin-4-yl]-4-methyl-N-(1-methylethyl)benzamide trifluoroacetate], the IC50 in test [1] (setting [4]) was > 100 nM.

Regarding `CN(C)CCNc1nc(-c2ccc(C(=O)Nc3nccs3)cc2)c2c(n1)N(c1c(F)cccc1F)C(=O)NC2` [96(b), 4-(8-(2,6-difluorophenyl)-2-{[2-(dimethylamino)ethyl]amino}-7-oxo-5,6,7,8-tetrahydropyrimido[4,5-d]pyrimidin-4-yl)-N-1,3-thiazol-2-ylbenzamide], the “active in the assay” value at Recombinant human p38α is on record as “active”. The IC50 in test [1] (setting [4]) was > 100 nM.

For `CN(C)CCNc1nc(-c2ccc(C(=O)Nc3ccc(F)cc3)cc2)c2c(n1)N(c1c(F)cccc1F)C(=O)NC2` [Example 100, 4-(8-(2,6-difluorophenyl)-2-{[2-(dimethylamino)ethyl]amino}-7-oxo-5,6,7,8-tetrahydropyrimido[4,5-d]pyrimidin-4-yl)-N-(4-fluorophenyl)benzamide trifluoroacetate], the IC50 at Recombinant human p38α (setting [2]) is > 15800 nM; in test [1] (setting [4]), > 100 nM.

Turning to `CCCNC(=O)c1ccc(C)c(-c2nc(NCCCNCC)nc3c2CNC(=O)N3c2c(F)cccc2F)c1` [230(b), 3-(8-(2,6-difluorophenyl)-2-{[3-(ethylamino)propyl]amino}-7-oxo-5,6,7,8-tetrahydropyrimido[4,5-d]pyrimidin-4-yl)-4-methyl-N-propylbenzamide trifluoroacetate], the IC50 in test [1] (setting [4]) was > 100 nM.

With `CN(C)CCNc1nc(-c2ccc(C(=O)Nc3ccccc3)cc2)c2c(n1)N(c1c(F)cccc1F)C(=O)NC2` [Example 99, 4-(8-(2,6-difluorophenyl)-2-{[2-(dimethylamino)ethyl]amino}-7-oxo-5,6,7,8-tetrahydropyrimido[4,5-d]-pyrimidin-4-yl)-N-phenylbenzamide trifluoroacetate], the IC50 on Recombinant human p38α (setting [5]) was ≥ 1260 nM; in test [1] (setting [4]) it was > 100 nM.

`CCN(CC)C(=O)c1ccc(C)c(-c2nc(SC)nc3c2CNC(=O)N3c2c(F)cccc2F)c1` [156(a)]: on Recombinant human p38α, the “active in the assay” value is reported as “active”. In addition, the IC50 in test [1] (setting [4]) is > 100 nM.

Regarding `CCN(CC)CCCNc1nc(-c2cc(C(=O)O)ccc2C)c2c(n1)N(c1c(F)cccc1F)C(=O)NC2` [228(b), 3-[2-{[3-(diethylamino)propyl]amino}-8-(2,6-difluorophenyl)-7-oxo-5,6,7,8-tetrahydropyrimido[4,5-d]pyrimidin-4-yl]-4-methylbenzoic acid], the IC50 in test [1] (setting [4]) was > 100 nM.

Regarding `Cc1ccc(C(=O)NCc2ccccc2)cc1-c1nc(S(C)(=O)=O)nc2c1CNC(=O)N2c1c(F)cccc1F` [15(b), 3-[8-(2,6-Difluorophenyl)-2-(methylsulfonyl)-7-oxo-5,6,7,8-tetrahydropyrimido[4,5-d]pyrimidin-4-yl]-4-methyl-N-(phenylmethyl)benzamide], at Recombinant human p38α, the “active in the assay” value is listed as “active”. Besides, the IC50 in test [1] (setting [4]) was > 100 nM.

Take `CCCNC(=O)c1ccc(C)c(-c2nc(NCCC(=O)O)nc3c2CNC(=O)N3c2c(F)cccc2F)c1` [Example 229, N-(8-(2,6-difluorophenyl)-4-{2-methyl-5-[(propylamino)carbonyl]phenyl}-7-oxo-5,6,7,8-tetrahydropyrimido[4,5-d]pyrimidin-2-yl)-β-alanine]: the IC50 in test [1] (setting [4]) was > 100 nM.

Turning to `Cc1ccc(C(=O)NC(C)C)cc1-c1nc(NCCCNC(C)C)nc2c1CNC(=O)N2c1c(F)cccc1F` [Example 49, 3-[8-(2,6-difluorophenyl)-2-({3-[(1-methylethyl)amino]propyl}amino)-7-oxo-5,6,7,8-tetrahydropyrimido[4,5-d]pyrimidin-4-yl]-4-methyl-N-(1-methylethyl)benzamide], in test [1] (setting [4]), the IC50 is > 100 nM.

Consider `Cc1ccc(C(=O)NCC(C)(C)C)cc1-c1nc(NCCN(C)C)nc2c1CNC(=O)N2c1c(F)cccc1F` [Example 125, 3-(8-(2,6-difluorophenyl)-2-{[2-(dimethylamino)ethyl]amino}-7-oxo-5,6,7,8-tetrahydropyrimido[4,5-d]pyrimidin-4-yl)-N-(2,2-dimethylpropyl)-4-methylbenzamide], for which the IC50 in test [1] (setting [4]) is > 100 nM.

As for `Cc1ccc(C(=O)NC(C)C)cc1-c1nc(N2CCN(C(c3ccccc3)c3ccccc3)CC2)nc2c1CNC(=O)N2c1c(F)cccc1F` [Example 84, 3-{8-(2,6-difluorophenyl)-2-[4-(diphenylmethyl)-1-piperazinyl]-7-oxo-5,6,7,8-tetrahydropyrimido[4,5-d]pyrimidin-4-yl}-4-methyl-N-(1-methylethyl)benzamide trifluoroacetate], the figures for the IC50 (on Recombinant human p38α (setting [5]); in test [1] (setting [4])) were > 1780 nM and > 100 nM, respectively.

As for `Cc1ccc(C(=O)NC(C)C)cc1-c1nc(N2CCC(N3CCOCC3)CC2)nc2c1CNC(=O)N2c1c(F)cccc1F` [Example 71, 3-{8-(2,6-difluorophenyl)-2-[4-(4-morpholinyl)-1-piperidinyl]-7-oxo-5,6,7,8-tetrahydropyrimido[4,5-d]pyrimidin-4-yl}-4-methyl-N-(1-methylethyl)benzamide], the IC50 in test [1] (bound, screened at a different top concentration, read-out: IC50) is > 1 nM.

On to `CNC(=O)c1ccc(-c2nc(NCCN(C)C)nc3c2CNC(=O)N3c2c(F)cccc2F)c(C)c1` [Example 109, 4-(8-(2,6-difluorophenyl)-2-{[2-(dimethylamino)ethyl]amino}-7-oxo-5,6,7,8-tetrahydropyrimido[4,5-d]pyrimidin-4-yl)-N,3-dimethylbenzamide trifluoroacetate], for which the IC50 in test [1] (setting [4]) is > 100 nM.

The values are drawn from patent US20090239846A1, “Novel Compounds” (Glaxo Group Limited, priority 2005, published 2009).
